The source of these data is US20100120715A1, “BETA-LACTAMASE INHIBITORS” (priority 2007, published 2010).

Structures are written as SMILES. Like-named read-outs stand apart in the source and are kept apart here. A value given as a limit tells only on which side of the number the result lay.

For assay [1], the system named is K. pneumoniae expressing the Class A carbapenemase KPC-2. The assay is described as follows: microbe, parasite or virus in culture. The note with it: in the presence of fixed 8 μg/mL Ceftazidime.
Assay [2] concerns the target T1, Class A ESBL CTXM-15 (Escherichia coli, UniProt Q9EXV5).
T1 construct: made in house; host or cells: E. coli BL21(DE3)
The assay is described as follows: β-lactamase enzyme inhibition (nitrocefin hydrolysis), CTXM-15. The class given is biochemical. The note with it: purified enzyme; nitrocefin 100 μM, PBS pH 7.0; read-out: CTXM-15 IC50 Range. In a few lines:
(§1)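 Native untagged enzymes were expressed in E. coli BL21(DE3) and purified by cation exchange and gel filtration. Compound series (100–0.005 μM in PBS pH 7.0, before addition of an equal enzyme volume) were preincubated with enzyme 10 min at 37°C. Nitrocefin (100 μM final) hydrolysis was read kinetically at 486 nm for 10 min, and IC50 was taken as 50% reduction of initial rate versus no-inhibitor wells.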

In assay [3] the target is T2, Class A ESBL SHV-5 (Klebsiella pneumoniae, UniProt P0A3M1).
T2 construct: made in house; host or cells: E. coli BL21(DE3) for purified enzyme; E. coli cells containing SHV-5 for extracts
The class given is biochemical, E. coli. The note with it: nitrocefin 100 μM, PBS pH 7.0, read-out: SHV-5 IC50 Range.

In assay [4] the test system is K. pneumoniae expressing the Class A ESBL CTX-M-15. The assay is described as follows: microbe, parasite or virus in culture. The class given is cell-based. The note with it: in the presence of fixed 8 μg/mL Ceftazidime. An excerpt: To determine the ability of test compounds to potentiate the inhibition of the growth of bacterial strains producing beta-lactamase enzymes, classic cell based screening assays were employed. Four bacteria strains producing beta-lactamase enzymes were used: K. pneumoniae expressing the Class A Extended Spectrum Beta-Lactamase (ESBL) CTX-M-15, E. coli expressing the Class A ESBL SHV-5, E. cloacae expressing the Class C P99+, and K. pneumoniae expressing the Class A carbapenemase KPC-2. In order to evaluate the ability of test compounds to inhibit beta-lactamase activity, Applicants used a modification of the broth microdilution assay. The assay was conducted in Cation Adjusted Mueller Hinton Broth (CAMHB, BD # 212322, BD Diagnostic Systems, Sparks, Md.). Bacteria strains were grown for 3-5 hours in CAMBH broth. All four strains were grown in presence of 50 μg/mL ampicillin to ensure resistance is maintained. In the meantime, test compounds were diluted in DMSO to a 0.1 mg/mL stock. The compounds were added to a microtiter plate and were diluted in 2-fold serial dilutions in CAMHB in a final concentration range of 8 μg/mL to 0.015 μg/ml. […] […] Each of these compound plates are made in quadruplicate, one for each bacteria strain. In addition to the titration of test compounds the MICs of a panel of cephalosporins is also tested to ensure the strains are behaving consistently from test to test. Once the test compound and cephalosporin are added the plates can be inoculated. Inocula are conducted according to CLSI broth microdilution method. After inoculation the plates are incubated for 16-20 hours at 37° C. then the Minimal Inhibitory Concentration (MIC) of the test compound is determined visually.

The target in assay [5] is T3, Class C P99 AmpC (Enterobacter cloacae, UniProt P05364).
T3 construct: made in house; host or cells: E. coli BL21(DE3)
The class given is biochemical. The note with it: purified enzyme; nitrocefin 100 μM, PBS pH 7.0; read-out: P99 AmpC IC50 Range. In a few lines: as §1

The subject of assay [6] is E. coli expressing the Class A ESBL SHV-5. In words: microbe, parasite or virus in culture. The class given is cell-based. The note with it: in the presence of fixed 8 μg/mL Ceftazidime. From the text:
To determine the ability of test compounds to potentiate the inhibition of the growth of bacterial strains producing beta-lactamase enzymes, classic cell based screening assays were employed. Four bacteria strains producing beta-lactamase enzymes were used: K. pneumoniae expressing the Class A Extended Spectrum Beta-Lactamase (ESBL) CTX-M-15, E. coli expressing the Class A ESBL SHV-5, E. cloacae expressing the Class C P99+, and K. pneumoniae expressing the Class A carbapenemase KPC-2. In order to evaluate the ability of test compounds to inhibit beta-lactamase activity, Applicants used a modification of the broth microdilution assay. The assay was conducted in Cation Adjusted Mueller Hinton Broth (CAMHB, BD # 212322, BD Diagnostic Systems, Sparks, Md.). Bacteria strains were grown for 3-5 hours in CAMBH broth. All four strains were grown in presence of 50 μg/mL ampicillin to ensure resistance is maintained. In the meantime, test compounds were diluted in DMSO to a 0.1 mg/mL stock. The compounds were added to a microtiter plate and were diluted in 2-fold serial dilutions in CAMHB in a final concentration range of 8 μg/mL to 0.015 μg/ml. An overlay of CAMHB containing a cephalosporin was added to the compounds at a final static concentration of 8 μg/ml. […] Each of these compound plates are made in quadruplicate, one for each bacteria strain. In addition to the titration of test compounds the MICs of a panel of cephalosporins is also tested to ensure the strains are behaving consistently from test to test. Once the test compound and cephalosporin are added the plates can be inoculated. Inocula are conducted according to CLSI broth microdilution method. After inoculation the plates are incubated for 16-20 hours at 37° C. then the Minimal Inhibitory Concentration (MIC) of the test compound is determined visually.

For assay [7], the target named is T4, Class A carbapenemase KPC-2 (Klebsiella pneumoniae, UniProt Q9F663).
T4 construct: made in house; host or cells: E. coli BL21(DE3)
The assay is described as follows: β-lactamase enzyme inhibition (nitrocefin hydrolysis), KPC-2. The class given is biochemical. Particulars: purified enzyme; nitrocefin 100 μM, PBS pH 7.0; read-out: KPC-2 IC50 Range. In a few lines:
as §1

[8] abbreviates: cellular extracts of E. coli containing SHV-5 (Examples 2-30).
The mark [9] stands for this setting: purified beta-lactamase enzyme (Examples 1 and 31-64).

T4 sequence (Q9F663 25-293 limits assumed): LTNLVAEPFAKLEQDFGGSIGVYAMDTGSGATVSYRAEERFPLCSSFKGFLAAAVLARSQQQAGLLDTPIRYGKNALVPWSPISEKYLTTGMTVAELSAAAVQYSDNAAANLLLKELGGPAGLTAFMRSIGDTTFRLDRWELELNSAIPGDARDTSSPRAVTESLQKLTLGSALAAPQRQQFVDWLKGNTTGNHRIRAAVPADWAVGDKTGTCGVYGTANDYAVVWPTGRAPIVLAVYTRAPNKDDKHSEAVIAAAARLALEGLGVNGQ
T3 sequence (P05364 21-381): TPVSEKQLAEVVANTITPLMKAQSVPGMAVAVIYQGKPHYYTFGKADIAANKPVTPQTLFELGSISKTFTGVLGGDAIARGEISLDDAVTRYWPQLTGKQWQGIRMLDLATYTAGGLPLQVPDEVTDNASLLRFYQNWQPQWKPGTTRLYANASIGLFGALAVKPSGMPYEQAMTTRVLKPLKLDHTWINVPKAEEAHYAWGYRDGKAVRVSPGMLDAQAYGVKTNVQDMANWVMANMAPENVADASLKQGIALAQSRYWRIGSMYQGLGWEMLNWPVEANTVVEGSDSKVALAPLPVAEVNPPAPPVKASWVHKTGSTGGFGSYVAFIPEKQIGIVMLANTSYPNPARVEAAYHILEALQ
T1 sequence (Q9EXV5 entry or part of it): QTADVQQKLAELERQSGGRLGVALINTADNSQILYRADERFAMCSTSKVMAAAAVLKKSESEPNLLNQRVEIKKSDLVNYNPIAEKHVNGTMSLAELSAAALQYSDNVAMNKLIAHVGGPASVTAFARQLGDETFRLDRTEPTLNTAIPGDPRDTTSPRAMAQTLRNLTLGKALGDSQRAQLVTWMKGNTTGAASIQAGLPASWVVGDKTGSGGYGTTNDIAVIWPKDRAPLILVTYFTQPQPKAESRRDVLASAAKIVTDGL
T2 sequence (P0A3M1 22-286): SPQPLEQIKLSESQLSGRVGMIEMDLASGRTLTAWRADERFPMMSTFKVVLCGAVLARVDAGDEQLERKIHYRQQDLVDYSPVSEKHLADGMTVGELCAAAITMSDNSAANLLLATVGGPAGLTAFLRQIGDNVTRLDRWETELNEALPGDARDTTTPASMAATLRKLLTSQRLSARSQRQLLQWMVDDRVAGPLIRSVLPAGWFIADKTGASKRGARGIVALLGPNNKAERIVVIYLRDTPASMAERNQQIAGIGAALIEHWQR

In general, IC50 refers to the concentration that inhibits the measured activity by half. On to `O=C(O)COc1cccc(CC(=O)N[C@@H](Cc2cccc(C(=O)O)c2O)B(O)O)c1` [Example 7, (1R)-1-[3-(carboxymethoxy)-phenyl]acetylamino-(3-carboxy-2-hydroxy)benzyl-methylboronic acid], for which, in assay [1], the “MIC of example compound, K. pneumoniae KPC-2 + 8 μg/mL CAZ” value (“MIC … K. pneumoniae KPC-2 + 8 μg/mL CAZ” for short) was “C (C represents an MIC of <1 μg/mL)”. Further, the IC50 in assay [2], in assay [3] (setting [8]) and in assay [5] was under 10 nM throughout. Also, the “MIC of example compound, K. pneumoniae CTX-M-15 + 8 μg/mL CAZ” value (from here on “MIC … K. pneumoniae CTX-M-15 + 8 μg/mL CAZ”) in assay [4] is “C (C represents an MIC of <1 μg/mL)”. Further, the “MIC of example compound, E. coli SHV-5 + 8 μg/mL CAZ” value (“MIC … E. coli SHV-5 + 8 μg/mL CAZ” for short) in assay [6] is given as “C (C represents an MIC of <1 μg/mL)”.

As to `COc1ccccc1C(=O)N[C@@H](Cc1cccc(C(=O)O)c1O)B(O)O` [Example 34, (1R)-1-(2-methoxybenzoylamino)-2-(2-hydroxy-3-carboxyphenyl)ethyl-1-boronic acid], in assay [1], the “MIC … K. pneumoniae KPC-2 + 8 μg/mL CAZ” value is “C (C represents an MIC of <1 μg/mL)”. For the same molecule, the IC50 was under 10 nM in assay [2], 100 to 1000 nM in assay [3] (setting [9]), under 10 nM in assay [5] and 10 to 100 nM in assay [7]. In addition, the “MIC … E. coli SHV-5 + 8 μg/mL CAZ” value in assay [6] is recorded as “A (A represents an MIC >8 μg/mL)”.

Regarding `O=C(N[C@@H](Cc1cccc(C(=O)O)c1O)B(O)O)c1ccc(N2CCOCC2)nc1` [Example 48, (1R)-1-(6-morpholin-4-yl-pyridine-3-carbonyl)-amino-1-(3-carboxy-2-hydroxy)benzyl-methylboronic acid], the “MIC … K. pneumoniae KPC-2 + 8 μg/mL CAZ” value in assay [1] was “C (C represents an MIC of <1 μg/mL)”. Also, the IC50 in assay [2] is under 10 nM; in assay [3] (setting [9]), 100 to 1000 nM; in assay [5] it was 10 to 100 nM; in assay [7] it was under 10 nM. The “MIC … E. coli SHV-5 + 8 μg/mL CAZ” value in assay [6] is “A (A represents an MIC >8 μg/mL)”.

Regarding `O=C(CO)N[C@@H](Cc1cccc(C(=O)O)c1O)B(O)O` [Example 19, (1R)-1-Hydroxyacetylamino-1-(3-carboxy-2-hydroxy)benzyl-methyl boronic acid], the “MIC … K. pneumoniae KPC-2 + 8 μg/mL CAZ” value in assay [1] is on record as “C (C represents an MIC of <1 μg/mL)”. Moreover, the IC50 in assay [2] lay within 10 to 100 nM; in assay [3] (setting [8]) it was 100 to 1000 nM; in assay [5], 100 to 1000 nM; in assay [7], 10 to 100 nM. Further, the “MIC … K. pneumoniae CTX-M-15 + 8 μg/mL CAZ” value in assay [4] is on record as “C (C represents an MIC of <1 μg/mL)”. For the same molecule, the “MIC … E. coli SHV-5 + 8 μg/mL CAZ” value in assay [6] is “A (A represents an MIC >8 μg/mL)”.

As to `Cn1nc(-c2ccccc2)cc1C(=O)N[C@@H](Cc1cccc(C(=O)O)c1O)B(O)O` [Example 44, (1R)-1-(1-methyl-3-phenyl-1H-pyrazole-5-carbonyl-amino)-2-(2-hydroxy-3-carboxyphenyl)ethyl-1-boronic acid], the IC50 is under 10 nM in assay [2], under 10 nM in assay [3] (setting [9]), under 10 nM in assay [5] and 10 to 100 nM in assay [7]. In addition, in assay [4], the “MIC … K. pneumoniae CTX-M-15 + 8 μg/mL CAZ” value is reported as “A (A represents an MIC >8 μg/mL)”. The “MIC … E. coli SHV-5 + 8 μg/mL CAZ” value in assay [6] is recorded as “A (A represents an MIC >8 μg/mL)”.

`O=C(Cc1cccs1)N[C@@H](Cc1cccc(C(=O)O)c1O)B(O)O` [Example 1, (1R)-1-(2-thiophene-2-yl-acetylamino)-2-(2-hydroxy-3-carboxyphenyl)ethyl-1-boronic acid]: the “MIC … K. pneumoniae KPC-2 + 8 μg/mL CAZ” value in assay [1] is recorded as “C (C represents an MIC of <1 μg/mL)”. Besides, the IC50 in assay [2], in assay [3] (setting [9]), in assay [5] and in assay [7] was under 10 nM in each case. Besides, the “MIC … K. pneumoniae CTX-M-15 + 8 μg/mL CAZ” value in assay [4] is “C (C represents an MIC of <1 μg/mL)”. Besides, the “MIC … E. coli SHV-5 + 8 μg/mL CAZ” value in assay [6] was “C (C represents an MIC of <1 μg/mL)”.

As for `O=C(O)c1cccc(C[C@H](NC(=O)c2c(Cl)cccc2Cl)B(O)O)c1O` [Example 43, (1R)-1-(2,6-Dichlorobenzoyl)-amino-1-(3-carboxy-2-hydroxy)benzyl-methylboronic acid], the “MIC … K. pneumoniae KPC-2 + 8 μg/mL CAZ” value in assay [1] is “A (A represents an MIC >8 μg/mL)”. Moreover, the IC50 in assay [2] was 10 to 100 nM; in assay [3] (setting [9]), over 1000 nM; in assay [5], under 10 nM; in assay [7] it was 10 to 100 nM. The “MIC … K. pneumoniae CTX-M-15 + 8 μg/mL CAZ” value in assay [4] is “A (A represents an MIC >8 μg/mL)”. Further, the “MIC … E. coli SHV-5 + 8 μg/mL CAZ” value in assay [6] is reported as “A (A represents an MIC >8 μg/mL)”.

On to `Cc1nc(-c2cccc(C(=O)N[C@@H](Cc3cccc(C(=O)O)c3O)B(O)O)c2)no1` [Example 47, (1R)-1-[3-(5-methyl-[1,2,4]oxadiazol-3-yl)-benzoyl]-amino-1-(3-carboxy-2-hydroxy)benzyl-methylboronic acid], for which the IC50 is under 10 nM in assay [2], 10 to 100 nM in assay [3] (setting [9]), under 10 nM in assay [5] and under 10 nM in assay [7]. The “MIC … K. pneumoniae CTX-M-15 + 8 μg/mL CAZ” value in assay [4] is listed as “A (A represents an MIC >8 μg/mL)”. Besides, the “MIC … E. coli SHV-5 + 8 μg/mL CAZ” value in assay [6] is recorded as “A (A represents an MIC >8 μg/mL)”.

In the case of `O=C(O)c1cccc(C[C@H](NC(=O)[C@@H]2CCCN2)B(O)O)c1O.O=CO` [Example 64, (1R),(2′S)-1-(pyrrolidine-2-carbonylamino)-2-(2-hydroxy-3-carboxyphenyl)ethyl-1-boronic acid formate], the “MIC … K. pneumoniae KPC-2 + 8 μg/mL CAZ” value in assay [1] was “C (C represents an MIC of <1 μg/mL)”. The IC50 in assay [2] was 100 to 1000 nM; in assay [3] (setting [9]), over 1000 nM; in assay [5], 10 to 100 nM; in assay [7] it was 100 to 1000 nM. Besides, in assay [4], the “MIC … K. pneumoniae CTX-M-15 + 8 μg/mL CAZ” value is “A (A represents an MIC >8 μg/mL)”. The “MIC … E. coli SHV-5 + 8 μg/mL CAZ” value in assay [6] is listed as “A (A represents an MIC >8 μg/mL)”.

As to `CC(C)(C)CC(=O)N[C@@H](Cc1cccc(C(=O)O)c1O)B(O)O` [Example 25, (1R)-1-(3,3-Dimethyl-butyrylamino)-(3-carboxy-2-hydroxy)benzyl-methylboronic acid], the “MIC … K. pneumoniae KPC-2 + 8 μg/mL CAZ” value in assay [1] is listed as “C (C represents an MIC of <1 μg/mL)”. Besides, the IC50 in assay [2], in assay [3] (setting [8]), in assay [5] and in assay [7] was 10 to 100 nM throughout. Further, in assay [4], the “MIC … K. pneumoniae CTX-M-15 + 8 μg/mL CAZ” value was “C (C represents an MIC of <1 μg/mL)”.
